Measurements reported in the supplement of paper PMC11451515.

Experiments:
Details in all cases: 48 h
[1] = test system: P12-Ichikawa; test: AUC of viability dose-response curve (% viability x log10 dose units); higher = less sensitive
Method in brief: (§1)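 In 1536-well plates, leukemia cells adapted to each medium (500 or 1000 cells/well) were exposed for 48 h at 37°C to library compounds in DMSO across 11 threefold doses, 47 μM down to 0.79 nM. Viability was read by CellTiter-Glo One luminescence and normalised per plate to DMSO and cell-free wells. A four-parameter log-logistic fit over log10 doses was integrated by trapezoidal rule. This yielded the area under the curve, with over-full-viability curves scaled and quality-control failures dropped.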

[2] = test system: SEM cells; test: as above
Method in brief: as §1

[3] = test system: NOMO1; test: as above
Method in brief: as §1

[4] = test system: P12-Ichikawa; test: cell viability relative to DMSO control; higher = less cytotoxic
Method in brief: (§2)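 Viability, reported as a per-plate percentage of DMSO wells with cell-free wells as background, came from CellTiter-Glo One luminescence. Reading took place after 48 h at 37°C. Before that, NOMO1 or SEM (500 cells/well) or P12-Ichikawa (1000 cells/well) leukemia cells, adapted for at least four passages in each medium, were seeded in 1536-well plates (5 μl) and pin-dosed with library compounds in DMSO, 47 μM to 0.79 nM over 11 threefold points.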

[5] = test system: SEM cells; test: as above
Method in brief: as §2

[6] = test system: NOMO1; test: as above
Method in brief: as §2

CCCCC[C@H](O)/C=C/[C@H]1[C@H](O)CC(=O)[C@@H]1C/C=C\CCCC(=O)O
AUC of viability dose-response curve
Details	[1]	[2]	[3]
HPLM + 10% dialyzed FBS	460	456	449
RPMI 5 mM glucose + 10% FBS	457	458	453
RPMI 5 mM glucose + 10% dialyzed FBS	457	460	440

Cl.Nc1ccn([C@@H]2O[C@H](CO)[C@@H](O)C2(F)F)c(=O)n1
AUC of viability dose-response curve
Details	[1]	[2]	[3]
HPLM + 10% dialyzed FBS	230	179	263
RPMI 5 mM glucose + 10% FBS	223	175	243
RPMI 5 mM glucose + 10% dialyzed FBS	212	141	248

O=C1CC[C@@]2(O)[C@H]3Cc4ccc(O)c5c4[C@@]2(CCN3CC2CC2)[C@H]1O5
AUC of viability dose-response curve
Details	[1]	[2]	[3]
HPLM + 10% dialyzed FBS	459	469	419
RPMI 5 mM glucose + 10% FBS	474	451	411
RPMI 5 mM glucose + 10% dialyzed FBS	469	463	434

O=C1NC(=O)/C(=C/c2cccc(C(F)(F)F)c2)S1
cell viability [%]
Details	[4]	[5]	[6]
HPLM + 10% dialyzed FBS, 0.000781 µM	107	100	114
HPLM + 10% dialyzed FBS, 0.00234 µM	110	93.3	95.1
HPLM + 10% dialyzed FBS, 0.00702 µM	111	96.5	96.8
HPLM + 10% dialyzed FBS, 0.0211 µM	110	108	113
HPLM + 10% dialyzed FBS, 0.0632 µM	103	101	102
HPLM + 10% dialyzed FBS, 0.19 µM	108	102	98.4
HPLM + 10% dialyzed FBS, 0.569 µM	104	100	108
HPLM + 10% dialyzed FBS, 1.71 µM	110	100	99.1
HPLM + 10% dialyzed FBS, 5.12 µM	106	107	92.8
HPLM + 10% dialyzed FBS, 15.4 µM	98	89.1	96.9
HPLM + 10% dialyzed FBS, 46.1 µM	100	66.7	90
RPMI 5 mM glucose + 10% FBS, 0.000781 µM	99.3	99.5	90.3
RPMI 5 mM glucose + 10% FBS, 0.00234 µM	96.4	100	90.2
RPMI 5 mM glucose + 10% FBS, 0.00702 µM	99.8	110	94.1
RPMI 5 mM glucose + 10% FBS, 0.0211 µM	115	108	101
RPMI 5 mM glucose + 10% FBS, 0.0632 µM	94.1	112	106
RPMI 5 mM glucose + 10% FBS, 0.19 µM	94.8	108	97.8
RPMI 5 mM glucose + 10% FBS, 0.569 µM	98.6	115	97.8
RPMI 5 mM glucose + 10% FBS, 1.71 µM	98.7	104	93.2
RPMI 5 mM glucose + 10% FBS, 5.12 µM	100	108	101
RPMI 5 mM glucose + 10% FBS, 15.4 µM	89.4	98.9	96.5
RPMI 5 mM glucose + 10% FBS, 46.1 µM	82.9	59.7	80.1
RPMI 5 mM glucose + 10% dialyzed FBS, 0.000781 µM	90.3	93.7	95.5
RPMI 5 mM glucose + 10% dialyzed FBS, 0.00234 µM	97.4	106	99.6
RPMI 5 mM glucose + 10% dialyzed FBS, 0.00702 µM	91.9	106	99
RPMI 5 mM glucose + 10% dialyzed FBS, 0.0211 µM	104	115	104
RPMI 5 mM glucose + 10% dialyzed FBS, 0.0632 µM	95.9	99.6	93.1
RPMI 5 mM glucose + 10% dialyzed FBS, 0.19 µM	93.1	94.4	92.9
RPMI 5 mM glucose + 10% dialyzed FBS, 0.569 µM	94.2	102	93.2
RPMI 5 mM glucose + 10% dialyzed FBS, 1.71 µM	99.7	108	108
RPMI 5 mM glucose + 10% dialyzed FBS, 5.12 µM	97.4	109	103
RPMI 5 mM glucose + 10% dialyzed FBS, 15.4 µM	90.2	102	87.9
RPMI 5 mM glucose + 10% dialyzed FBS, 46.1 µM	89.2	62.5	92.2

AUC of viability dose-response curve
Details	[1]	[2]	[3]
HPLM + 10% dialyzed FBS	471	463	448
RPMI 5 mM glucose + 10% FBS	466	463	458
RPMI 5 mM glucose + 10% dialyzed FBS	453	467	463

C#Cc1cccc(Nc2ncnc3cc(OC)c(OCCCCCCC(=O)NO)cc23)c1
cell viability [%]
Details	[4]	[5]	[6]
HPLM + 10% dialyzed FBS, 0.000781 µM	126	118	125
HPLM + 10% dialyzed FBS, 0.00234 µM	118	119	119
HPLM + 10% dialyzed FBS, 0.00702 µM	121	104	136
HPLM + 10% dialyzed FBS, 0.0211 µM	124	110	129
HPLM + 10% dialyzed FBS, 0.0632 µM	105	95.9	111
HPLM + 10% dialyzed FBS, 0.19 µM	69.2	73.4	98.2
HPLM + 10% dialyzed FBS, 0.569 µM	29.8	44	41.5
HPLM + 10% dialyzed FBS, 1.71 µM	8.83	15.1	18.4
HPLM + 10% dialyzed FBS, 5.12 µM	6.65	6.25	7.85
HPLM + 10% dialyzed FBS, 15.4 µM	6.4	5.23	8.02
HPLM + 10% dialyzed FBS, 46.1 µM	2.39	3.28	3.32
RPMI 5 mM glucose + 10% FBS, 0.000781 µM	–	88.3	–
RPMI 5 mM glucose + 10% FBS, 0.00234 µM	–	91.8	–
RPMI 5 mM glucose + 10% FBS, 0.00702 µM	–	75.6	–
RPMI 5 mM glucose + 10% FBS, 0.0211 µM	–	81.3	–
RPMI 5 mM glucose + 10% FBS, 0.0632 µM	–	69.8	–
RPMI 5 mM glucose + 10% FBS, 0.19 µM	–	46.3	–
RPMI 5 mM glucose + 10% FBS, 0.569 µM	–	26.5	–
RPMI 5 mM glucose + 10% FBS, 1.71 µM	–	6.61	–
RPMI 5 mM glucose + 10% FBS, 5.12 µM	–	4.45	–
RPMI 5 mM glucose + 10% FBS, 15.4 µM	–	3.81	–
RPMI 5 mM glucose + 10% FBS, 46.1 µM	–	1.74	–
RPMI 5 mM glucose + 10% dialyzed FBS, 0.000781 µM	–	119	–
RPMI 5 mM glucose + 10% dialyzed FBS, 0.00234 µM	–	123	–
RPMI 5 mM glucose + 10% dialyzed FBS, 0.00702 µM	–	108	–
RPMI 5 mM glucose + 10% dialyzed FBS, 0.0211 µM	–	120	–
RPMI 5 mM glucose + 10% dialyzed FBS, 0.0632 µM	–	117	–
RPMI 5 mM glucose + 10% dialyzed FBS, 0.19 µM	–	59.2	–
RPMI 5 mM glucose + 10% dialyzed FBS, 0.569 µM	–	28.8	–
RPMI 5 mM glucose + 10% dialyzed FBS, 1.71 µM	–	9.73	–
RPMI 5 mM glucose + 10% dialyzed FBS, 5.12 µM	–	6.06	–
RPMI 5 mM glucose + 10% dialyzed FBS, 15.4 µM	–	5.12	–
RPMI 5 mM glucose + 10% dialyzed FBS, 46.1 µM	–	2.79	–

AUC of viability dose-response curve
Details	[1]	[2]	[3]
HPLM + 10% dialyzed FBS	253	264	276
RPMI 5 mM glucose + 10% FBS	254	216	313
RPMI 5 mM glucose + 10% dialyzed FBS	244	254	300
